We go through 16 molecules from ChEMBL document CHEMBL2434851, “Squaric acid/4-aminoquinoline conjugates: novel potent antiplasmodial agents” (Eur J Med Chem, 2013).

One data set relates to NIH3T3. Description: Cytotoxicity against mouse NIH/3T3 cells assessed as cell viability after 48 hrs by MTT assay. The data set is classed as cell-based. As to conditions: NIH3T3, 48 h. A general note: Tetrazolium assays rely on reduction of a dye to a coloured formazan, in cell work by metabolically active cells.
The next data set addresses T1, Papain (Carica papaya, UniProt P00784).
T1 sequence (P00784 whole entry): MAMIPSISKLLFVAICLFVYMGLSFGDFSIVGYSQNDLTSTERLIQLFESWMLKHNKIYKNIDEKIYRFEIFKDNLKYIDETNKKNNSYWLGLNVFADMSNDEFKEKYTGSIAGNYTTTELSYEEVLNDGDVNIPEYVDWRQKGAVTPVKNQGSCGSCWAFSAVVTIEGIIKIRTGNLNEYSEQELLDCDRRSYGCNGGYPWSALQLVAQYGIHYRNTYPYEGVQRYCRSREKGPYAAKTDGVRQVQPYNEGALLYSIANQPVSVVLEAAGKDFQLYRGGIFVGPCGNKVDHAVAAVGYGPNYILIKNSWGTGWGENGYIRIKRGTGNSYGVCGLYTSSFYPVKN
Description: Inhibition of papaya papain using Z-Leu-Leu-Arg-AMC as substrate after 30 mins by fluorescence microplate reader analysis.

A further data set deals with HEK-293T. The data set can be described thus: Cytotoxicity against HEK293T cells assessed as cell viability after 48 hrs by MTT assay. The data set is classed as cell-based. The following applies: Homo sapiens.
The test system of the next data set is Plasmodium falciparum. The data set can be described thus: microbe, parasite or virus in culture. As to conditions: W2, 48 h.
The next data set is described as follows: in vitro. As to conditions: human.
Data set [1] can be described thus: Inhibition of Plasmodium falciparum falcipain-2 using Z-Leu-Arg-AMC as substrate preincubated for 10 mins followed by substrate addition by spectrofluorometric analysis.

Description for Plasmodium falciparum: Antiplasmodial activity against ring stage of chloroquine-resistant Plasmodium falciparum W2 infected in human RBC after 48 hrs by flow cytometric analysis
Description for in vitro: Selectivity index, ratio of IC50 for HEK293T cells to IC50 for ring stage of Plasmodium falciparum W2 infected in human RBC

A word on the IC50: it is the point on the concentration scale where inhibition reaches its midpoint. In the case of `CCCCOc1c(NCCCC(C)Nc2cc(OC)cc3cccnc23)c(=O)c1=O` (stereo not drawn), the IC50 is greater than 50 µM in the data set on NIH3T3, greater than 10 µM against Papain, greater than 50 µM in the data set on HEK-293T and 18.6 µM in the data set with Plasmodium falciparum. For the same molecule, the selectivity ratio in the data set “in vitro” is greater than 2.

Consider `CCCCOc1c(N2CCN(c3ccnc4cc(Cl)ccc34)CC2)c(=O)c1=O`, for which the IC50 in the data set on NIH3T3 is greater than 50 µM; against Papain it was greater than 10 µM; in the data set with HEK-293T, greater than 50 µM; with Plasmodium falciparum, 7.82 µM. Besides, the selectivity ratio in “in vitro” was greater than 6.

As for `CCCCOc1c(NCCCNc2ccnc3cc(Cl)ccc23)c(=O)c1=O`, the IC50 (at Papain; in the data set on Plasmodium falciparum; in data set [1]) was greater than 10 µM in each case.

On to `CCCCOc1c(NCCNc2ccnc3cc(Cl)ccc23)c(=O)c1=O`, for which the IC50 in the data set with NIH3T3 is greater than 50 µM; on Papain it was greater than 10 µM; in the data set with HEK-293T it was greater than 50 µM; with Plasmodium falciparum, 2.04 µM; in data set [1], greater than 10 µM. For the same molecule, the selectivity ratio in the data set “in vitro” is greater than 24.

As to `O=c1c(NCCCNc2ccnc3cc(Cl)ccc23)c(NCCCNc2ccnc3cc(Cl)ccc23)c1=O`, the IC50 in the data set with NIH3T3 is greater than 50 µM; against Papain it was greater than 10 µM; with HEK-293T it was greater than 50 µM; with Plasmodium falciparum it was 0.099 µM. Further, the selectivity ratio in “in vitro” was greater than 505.

Consider `CCCCOc1c(N2CCC(Nc3ccnc4cc(Cl)ccc34)CC2)c(=O)c1=O`, for which the figures for the IC50 in the data set on NIH3T3, with HEK-293T and in the data set with Plasmodium falciparum were 45.7 µM, 37.9 µM and 4.71 µM, respectively. In addition, the selectivity ratio in “in vitro” was determined as 8.

`COc1cc(NC(C)CCCNc2c(NCCCC(C)Nc3cc(OC)cc4cccnc34)c(=O)c2=O)c2ncccc2c1` (stereo not drawn): the IC50 with NIH3T3 is greater than 50 µM; in the data set with HEK-293T it was greater than 50 µM; in the data set on Plasmodium falciparum, 2.21 µM. Further, the selectivity ratio in “in vitro” is greater than 22.

Regarding `COc1c(NCCNc2ccnc3cc(Cl)ccc23)c(=O)c1=O`, the IC50 is greater than 50 µM in the data set with NIH3T3; greater than 10 µM at Papain; greater than 50 µM in the data set with HEK-293T; 1.56 µM in the data set with Plasmodium falciparum; greater than 10 µM in data set [1]. In “in vitro”, the selectivity ratio is greater than 32.

For `COc1c(NCCCNc2ccnc3cc(Cl)ccc23)c(=O)c1=O`, the IC50 in the data set on NIH3T3 is greater than 50 µM; against Papain, greater than 10 µM; with HEK-293T it was greater than 50 µM; in the data set on Plasmodium falciparum it was 1.84 µM. Further, in the data set “in vitro”, the selectivity ratio was greater than 27.

With `O=C(NCCNc1ccnc2cc(Cl)ccc12)[C@H](Cc1ccccc1)Nc1c(N[C@@H](Cc2ccccc2)C(=O)NCCNc2ccnc3cc(Cl)ccc23)c(=O)c1=O`, the IC50 in the data set on NIH3T3 is greater than 50 µM; on Papain, greater than 10 µM; in the data set with HEK-293T, greater than 50 µM; with Plasmodium falciparum, 0.71 µM; in data set [1], greater than 50 µM. Moreover, the selectivity ratio in “in vitro” was greater than 70.

As for `O=c1c(N2CCC(Nc3ccnc4cc(Cl)ccc34)CC2)c(N2CCC(Nc3ccnc4cc(Cl)ccc34)CC2)c1=O`, the IC50 in the data set with NIH3T3 was greater than 50 µM; in the data set on HEK-293T, greater than 50 µM; in the data set on Plasmodium falciparum, 0.105 µM. Also, the selectivity ratio in the data set “in vitro” is greater than 476.

For the molecule `CCCCOc1c(OCCCC)c(=O)c1=O` [SQUARIC ACID DIBUTYL ESTER], the midpoint of inhibition in the data set on Plasmodium falciparum, the IC50, lay at 8.84 µM.

For the molecule `CC(C)C[C@H](NC(=O)[C@H]1O[C@@H]1C(=O)O)C(=O)NCCCCN=C(N)N` [E-64], the IC50 against Papain was determined as 0.007 µM; in data set [1] it was 0.06 µM.

Consider `O=c1c(NCCCCNc2ccnc3cc(Cl)ccc23)c(NCCCCNc2ccnc3cc(Cl)ccc23)c1=O`, for which the IC50 is greater than 50 µM with NIH3T3, greater than 10 µM at Papain, greater than 50 µM in the data set with HEK-293T and 0.095 µM in the data set with Plasmodium falciparum. Further, the selectivity ratio in “in vitro” is greater than 526.

As to `O=c1c(NCCNc2ccnc3cc(Cl)ccc23)c(NCCNc2ccnc3cc(Cl)ccc23)c1=O`, the IC50 with NIH3T3 was 4.5 µM; against Papain, greater than 10 µM; in the data set on HEK-293T it was 5 µM; in the data set with Plasmodium falciparum, 0.2 µM. In addition, in the data set “in vitro”, the selectivity ratio amounted to 25.

As for `CCN(CC)CCCC(C)Nc1ccnc2cc(Cl)ccc12` (stereo not drawn) [CHLOROQUINE], the IC50 in the data set with NIH3T3 and in the data set with HEK-293T was greater than 50 µM throughout.
